Assay results as given in patent US20240285557A1, “PHARMACEUTICAL COMPOSITION COMPRISING LIPASE INHIBITOR FOR TREATMENT OR TREATMENT OF RNA VIRAL INFECTIONS” (priority 2021, published 2024).
Read-outs that look alike come from different tables or passages of the source.

Columns and labels:
[1] = MTT half-maximal cytotoxic concentration (CC50); conditions: dog
LLC-PK cells [2] = test system: LLC-PK cells
Method: (§1) To determine the half-maximal cytotoxic concentration (CC50) of the lipase inhibitors atglistatin and CAY10499, Vero E6, A549, HRT-18G, MA104, MARC-145, and LLC-PK cells were prepared in monolayers in 96-well plates.
(§2) The cells were treated with the drugs for 24 hours, and the culture media was removed before addition of 200 μL of 3-(4,5-dimethylthiazol-2-yl)-2,5-diphenyl tetrazolium bromide (MTT) solution to each well. The plates were then incubated for 4 hours in a 5% CO2 incubator at 36° C. Subsequently, 150 μL of DMSO solution was added to each well and incubated at 20° C. The optical density (OD) was measured at 570 nm wavelength using an enzyme-linked immunosorbent assay (ELISA) reader.

HRT18G cells [3] = test system: HRT18G cells
Method: as §1, §2

A549 cells [4] = test system: A549 cells
Method: as §1, §2

MA104 cells [5] = test system: MA104 cells
Method: as §1, §2

[6] = test system: A549, Vero E6, MDCK, HRT18G, MA04, MARC, and LLC-PK cells
Method: as §1, §2

MA104 cells [7] = test: MTT half-maximal cytotoxic concentration (CC50); conditions: MA104; drugs for 24 hours, MTT
Method: as §1, §2

HRT18G cells [8] = test: MTT half-maximal cytotoxic concentration (CC50); conditions: drugs for 24 hours
Method: as §1, §2

LLC-PK cells [9] = test: MTT half-maximal cytotoxic concentration (CC50); conditions: LLC-PK; drugs for 24 hours, MTT
Method: as §1, §2

A549 cells [10] = test: MTT half-maximal cytotoxic concentration (CC50); conditions: drugs for 24 hours
Method: as §1, §2

MARC cells = test: MTT half-maximal cytotoxic concentration (CC50); conditions: MARC; drugs for 24 hours, MTT
Method: as §1, §2

[11] = MTT half-maximal cytotoxic concentration (CC50); conditions: African green monkey
Method: as §1, §2

Method for Vero E6 cells: as §1, §2

Work on CN(C)C(=O)Nc1cccc(-c2ccc(N(C)C)cc2)c1 [Atglistatin, 3-(4′-(dimethylamino)-(1,1′-biphenyl)-3-yl)-1,1-dimethylurea] yielded a CC50 at 24 h [1] of 269 µM.

Work on COc1nn(-c2ccc(NC(=O)OCc3ccccc3)c(C)c2)c(=O)o1 [CAY10499] yielded a CC50 (LLC-PK cells [2]) of 109 µM, a CC50 (HRT18G cells [3]) of 104 µM and a CC50 (Vero E6 cells) of 102 µM. The CC50 (A549 cells [4]) was 106 µM, the CC50 (MA104 cells [5]) was 107 µM and the CC50 (MDCK cells) was 110 µM. For the same compound, the CC50 [6] was 101 to 110 µM.

For CCN(CC)C(=O)Nc1cccc(-c2ccc(N(C)C)cc2)c1 [DABPU-DE], the CC50 (MA104 cells [7]) was 209 µM, the CC50 (HRT18G cells [8]) was 177 µM and the CC50 (LLC-PK cells [9]) was 226 µM. It also gave a CC50 (A549 cells [10]) of 213 µM and a CC50 (MARC cells) of 216 µM.

In the case of CCN(C)C(=O)Nc1cccc(-c2ccc(N(C)C)cc2)c1 [DABPU-EM, 3-(4′-(dimethylamino)-(1,1′-biphenyl)-3-yl)-1-ethyl-1-methylurea], the CC50 at 24 h [11] is reported as 210 µM.
